What was measured:
[1] = molecular target: Calcium/calmodulin-dependent protein kinase type II subunit alpha (Homo sapiens) (UniProt Q9UQM7); assay: Inhibition of human CAMK2a at 1.82 nM by HotSpot assay relative to control
[2] = molecular target: Mitogen-activated protein kinase kinase kinase 9 (Homo sapiens) (UniProt P80192); assay: Inhibition of human MAP3K9 at 1.82 nM by HotSpot assay relative to control
[3] = molecular target: cAMP-dependent protein kinase (PKA) (Homo sapiens) (UniProt P22694+P17612+P22612); assay: Inhibition of human PKA at 1.82 nM by HotSpot assay relative to control; format: protein assay
[4] = molecular target: T1, Serine/threonine-protein kinase TAO3 (Homo sapiens) (UniProt Q9H2K8); assay: Inhibition of human JIK at 1.82 nM by HotSpot assay relative to control
T1 sequence (whole entry): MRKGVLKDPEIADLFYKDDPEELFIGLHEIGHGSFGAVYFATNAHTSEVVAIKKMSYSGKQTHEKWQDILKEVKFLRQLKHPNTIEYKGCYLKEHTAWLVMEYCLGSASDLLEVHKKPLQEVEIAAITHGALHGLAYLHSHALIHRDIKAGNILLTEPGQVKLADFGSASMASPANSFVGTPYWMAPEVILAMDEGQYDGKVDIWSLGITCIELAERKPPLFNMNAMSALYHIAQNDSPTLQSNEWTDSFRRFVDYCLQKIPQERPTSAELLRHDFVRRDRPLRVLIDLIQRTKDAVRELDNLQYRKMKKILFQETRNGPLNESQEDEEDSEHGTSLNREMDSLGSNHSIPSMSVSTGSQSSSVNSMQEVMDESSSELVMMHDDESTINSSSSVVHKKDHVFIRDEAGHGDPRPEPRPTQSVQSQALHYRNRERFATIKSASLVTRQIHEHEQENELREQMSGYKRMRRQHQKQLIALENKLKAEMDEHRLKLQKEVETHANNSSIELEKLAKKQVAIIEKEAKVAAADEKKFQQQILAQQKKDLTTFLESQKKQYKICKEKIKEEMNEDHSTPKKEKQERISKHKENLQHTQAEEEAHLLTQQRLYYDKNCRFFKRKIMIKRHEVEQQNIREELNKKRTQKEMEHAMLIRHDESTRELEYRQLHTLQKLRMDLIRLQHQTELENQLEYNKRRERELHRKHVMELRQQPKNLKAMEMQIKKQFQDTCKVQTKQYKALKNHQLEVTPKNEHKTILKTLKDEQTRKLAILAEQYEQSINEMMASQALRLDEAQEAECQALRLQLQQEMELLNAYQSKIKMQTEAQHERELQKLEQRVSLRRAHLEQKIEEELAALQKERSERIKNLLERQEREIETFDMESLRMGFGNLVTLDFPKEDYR

[5] = molecular target: T2, Serine/threonine-protein kinase DCLK2 (Homo sapiens) (UniProt Q8N568); assay: Inhibition of human DCAMKL2 at 18.6 nM by HotSpot assay relative to control
T2 sequence (whole entry): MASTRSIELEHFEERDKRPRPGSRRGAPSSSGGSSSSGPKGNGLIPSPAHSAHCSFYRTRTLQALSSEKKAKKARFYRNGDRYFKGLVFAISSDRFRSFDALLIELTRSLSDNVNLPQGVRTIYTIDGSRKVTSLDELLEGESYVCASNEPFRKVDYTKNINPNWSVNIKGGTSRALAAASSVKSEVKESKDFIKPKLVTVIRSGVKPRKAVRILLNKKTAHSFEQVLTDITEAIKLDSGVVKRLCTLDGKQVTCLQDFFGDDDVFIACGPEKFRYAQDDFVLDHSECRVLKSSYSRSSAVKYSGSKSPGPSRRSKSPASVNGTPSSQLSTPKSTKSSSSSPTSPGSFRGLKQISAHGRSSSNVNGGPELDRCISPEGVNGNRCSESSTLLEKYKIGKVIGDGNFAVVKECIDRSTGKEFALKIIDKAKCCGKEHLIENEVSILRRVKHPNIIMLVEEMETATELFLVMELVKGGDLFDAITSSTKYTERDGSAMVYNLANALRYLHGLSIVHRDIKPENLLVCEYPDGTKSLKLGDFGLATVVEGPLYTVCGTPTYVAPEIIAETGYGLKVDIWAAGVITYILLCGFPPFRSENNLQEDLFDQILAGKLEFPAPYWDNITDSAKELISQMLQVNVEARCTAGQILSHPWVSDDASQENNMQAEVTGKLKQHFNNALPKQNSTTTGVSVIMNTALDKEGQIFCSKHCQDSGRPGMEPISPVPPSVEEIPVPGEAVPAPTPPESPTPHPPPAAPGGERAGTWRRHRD

[6] = molecular target: T3, NUAK family SNF1-like kinase 2 (Homo sapiens) (UniProt Q9H093); assay: Inhibition of human NUAK2 at 18.6 nM by HotSpot assay relative to control
T3 sequence (whole entry): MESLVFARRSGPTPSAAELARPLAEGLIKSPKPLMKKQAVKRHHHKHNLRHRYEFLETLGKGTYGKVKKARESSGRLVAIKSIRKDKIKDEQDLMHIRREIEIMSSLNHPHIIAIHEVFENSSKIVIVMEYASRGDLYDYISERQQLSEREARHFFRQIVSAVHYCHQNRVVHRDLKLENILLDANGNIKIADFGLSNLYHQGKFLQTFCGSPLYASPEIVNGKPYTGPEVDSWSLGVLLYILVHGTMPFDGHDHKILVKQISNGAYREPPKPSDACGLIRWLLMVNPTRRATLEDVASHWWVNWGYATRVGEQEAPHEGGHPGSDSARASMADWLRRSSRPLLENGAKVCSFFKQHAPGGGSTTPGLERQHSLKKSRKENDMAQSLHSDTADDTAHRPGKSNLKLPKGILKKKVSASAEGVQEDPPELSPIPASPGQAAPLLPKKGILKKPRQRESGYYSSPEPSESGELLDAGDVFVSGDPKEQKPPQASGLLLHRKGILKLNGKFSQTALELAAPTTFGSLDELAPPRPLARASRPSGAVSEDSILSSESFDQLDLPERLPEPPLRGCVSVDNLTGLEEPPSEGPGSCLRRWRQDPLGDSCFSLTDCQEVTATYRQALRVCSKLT

Calcium/calmodulin-dependent protein kinase type II subunit alpha (Homo sapiens), sequence (Q9UQM7 whole entry): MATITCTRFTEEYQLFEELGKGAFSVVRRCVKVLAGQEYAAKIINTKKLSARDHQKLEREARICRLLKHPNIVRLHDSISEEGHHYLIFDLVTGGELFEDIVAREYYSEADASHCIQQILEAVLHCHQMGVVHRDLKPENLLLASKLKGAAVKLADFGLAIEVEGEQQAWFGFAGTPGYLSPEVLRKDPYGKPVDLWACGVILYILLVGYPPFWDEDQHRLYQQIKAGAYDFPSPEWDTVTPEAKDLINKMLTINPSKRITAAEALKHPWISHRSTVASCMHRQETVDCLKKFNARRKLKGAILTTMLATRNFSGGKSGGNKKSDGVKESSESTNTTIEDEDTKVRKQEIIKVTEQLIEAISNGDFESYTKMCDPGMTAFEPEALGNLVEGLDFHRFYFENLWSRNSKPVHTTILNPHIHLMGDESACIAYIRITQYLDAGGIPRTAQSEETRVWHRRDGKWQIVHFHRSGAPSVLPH
Mitogen-activated protein kinase kinase kinase 9 (Homo sapiens), sequence (P80192 whole entry, looked up): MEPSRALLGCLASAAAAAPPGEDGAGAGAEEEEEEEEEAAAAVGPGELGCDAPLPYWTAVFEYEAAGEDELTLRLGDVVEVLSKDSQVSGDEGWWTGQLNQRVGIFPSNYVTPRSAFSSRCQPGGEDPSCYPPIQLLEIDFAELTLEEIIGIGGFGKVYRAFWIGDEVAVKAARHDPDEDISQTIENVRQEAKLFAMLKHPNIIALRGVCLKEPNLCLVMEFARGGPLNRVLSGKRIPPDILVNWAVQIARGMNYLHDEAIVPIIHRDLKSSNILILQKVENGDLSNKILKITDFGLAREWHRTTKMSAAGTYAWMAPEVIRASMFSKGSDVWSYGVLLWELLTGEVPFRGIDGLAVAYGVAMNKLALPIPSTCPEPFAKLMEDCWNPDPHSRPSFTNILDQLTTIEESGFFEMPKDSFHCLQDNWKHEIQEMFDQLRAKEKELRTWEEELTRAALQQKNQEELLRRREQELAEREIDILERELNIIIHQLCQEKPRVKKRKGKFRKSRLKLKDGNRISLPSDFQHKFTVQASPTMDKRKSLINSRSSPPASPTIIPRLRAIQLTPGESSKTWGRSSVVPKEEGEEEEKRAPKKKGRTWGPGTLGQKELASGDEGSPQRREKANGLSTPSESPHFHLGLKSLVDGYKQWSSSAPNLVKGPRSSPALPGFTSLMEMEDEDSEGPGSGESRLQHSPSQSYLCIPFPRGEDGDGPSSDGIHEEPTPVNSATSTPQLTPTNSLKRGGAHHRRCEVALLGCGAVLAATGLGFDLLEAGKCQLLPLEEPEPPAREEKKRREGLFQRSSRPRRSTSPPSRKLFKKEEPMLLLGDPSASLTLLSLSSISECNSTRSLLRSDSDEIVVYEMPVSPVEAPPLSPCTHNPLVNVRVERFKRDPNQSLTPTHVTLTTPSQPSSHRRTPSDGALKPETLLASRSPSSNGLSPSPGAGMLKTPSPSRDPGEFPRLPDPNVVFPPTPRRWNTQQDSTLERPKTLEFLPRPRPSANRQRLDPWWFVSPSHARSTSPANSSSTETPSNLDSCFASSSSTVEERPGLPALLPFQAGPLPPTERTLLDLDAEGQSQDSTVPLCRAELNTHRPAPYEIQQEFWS

| SMILES | inhibition [1] | inhibition [2] | inhibition [3] | inhibition [4] | inhibition [5] | inhibition [6] |
| --- | --- | --- | --- | --- | --- | --- |
| C[C@@]1(C(=O)Nc2ccc(F)nc2)CCCN1c1nc(Nc2cc(C3CC3)n[nH]2)c2cccn2n1 | -2.76% | 2.63% | -3.44% | 4.12% |  |  |
| C[C@]1(O)C[C@@H](c2nc(-c3ccc4ccc(-c5ccccc5)nc4c3)c3c(N)nccn32)C1 |  |  |  |  | 10.8% | 11% |

Source: ChEMBL document CHEMBL5653615 (J Biol Chem, 2013)
